Experiments:
[1] = target: T1, MRGPRX4 (Homo sapiens, UniProt Q96LA9); assay: Detection of MRGPRX4 activity (IP1 HTRF, deoxycholic acid stimulation); format: cell-based; conditions: HEK-293 cells stably expressing MRGPRX4; compound 45 min, then deoxycholic acid 45 min; IP1 content by HTRF
T1 construct: expressed in transfected cells
Protocol: HEK-293 cells stably expressing MRGPRX4 were cultured in a DMEM medium containing 10% of FBS and 1% of a double antibody under the culture conditions of 37° C. and 5% CO2. Cells in the exponential growth phase were collected and inoculated into a 384-well plate at an inoculation density of 2×10^4 cells/well, with 10 μL per well. 2 μL/well of a gradient-diluted compound was added and co-incubated with the cells for 45 min. After the incubation was complete, 2 μL/well of deoxycholic acid (MCE, Cat: #HY-N0593) was added to continue the incubation for 45 min. After the incubation was complete, IP-one Gq kit (PE, Cat: #62IPAPEB) was used to detect the content of IP1 according to the instructions. HTRF values were substituted into GraphPad 8.0, and IC50 was calculated by fitting.

[2] = Study of pharmacokinetics in mice in vivo; set-up: species or system C57BL/6 mice; conditions: male, C57BL/6, mouse, po (intragastric), 50 mg/kg, plasma
Protocol: An appropriate amount of the test substance was weighed, and the test substance was prepared into a 2 mg/mL transparent clear solution using 5% DMSO+5% HS-15 (Solutol HS-15)+90% D5W (5% glucose) for intravenous administration. The test substance was prepared into a 5 mg/mL uniform suspension using 5% DMSO+5% HS-15+90% PBS for intragastric administration.
18 healthy male C57BL/6 mice (GemPharmatech Co., Ltd., SPF grade) were taken. The intravenous administration group and the intragastric administration group respectively had 9 animals. At each time point, blood samples were taken from 3 animals via an orbital microsampling method, with a sampling volume of approximately 0.04 mL per animal per time point.
For intravenous administration of the test substance (10 mg/kg), blood samples were taken before administration and at 5 min, 15 min, 0.5 h, 1 h, 2 h, 4 h, 8 h, and 24 h after administration, and for intragastric administration of the test substance (50 mg/kg), blood samples were taken before administration and at 15 min, 0.5 h, 1 h, 2 h, 4 h, 8 h, and 24 h after administration. After anticoagulation with EDTA-K2, the blood samples were centrifuged at 6000 g at 4° C. for 5 min to separate plasma, and all plasma samples were stored at −70° C. for testing. The drug concentration of the test substance in plasma was determined by LC-MS/MS method (with tolbutamide as an internal standard), and the main pharmacokinetic parameters were calculated by Winnolin 8.3 non-compartment model.

T1 sequence (Q96LA9 whole entry): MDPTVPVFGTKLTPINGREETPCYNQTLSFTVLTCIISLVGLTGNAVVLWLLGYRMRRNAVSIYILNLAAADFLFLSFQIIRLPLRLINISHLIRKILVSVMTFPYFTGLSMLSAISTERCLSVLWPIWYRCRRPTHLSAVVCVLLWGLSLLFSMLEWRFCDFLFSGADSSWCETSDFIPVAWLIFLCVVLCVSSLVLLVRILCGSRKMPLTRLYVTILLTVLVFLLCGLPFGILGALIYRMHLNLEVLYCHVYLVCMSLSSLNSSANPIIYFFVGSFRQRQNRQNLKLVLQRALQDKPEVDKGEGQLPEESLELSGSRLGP

IC50 [1] [µM]	AUC [2] [µg·h/mL]	Cmax [2] [µg/mL]	half-life [2] [h]	Structure (SMILES)
≤ 0.2	–	–	–	O=C(O)c1cccc(Cn2ccc3cc(C(F)(F)F)cc(Br)c32)c1F [Compound 15, 3-((7-Bromo-5-(trifluoromethyl)-1H-indol-1-yl)methyl)-2-fluorobenzoic acid]
≤ 0.2	–	–	–	Cc1ccc2c(ccn2Cc2cccc(C(=O)O)c2F)c1Cl [Compound 62, 3-((4-Chloro-5-methyl-1H-indol-1-yl)methyl)-2-fluorobenzoic acid]
0.2 to 0.5	–	–	–	O=C(O)c1cccc(Cn2ncc3c(F)c(Cl)ccc32)c1F [Compound 48, 3-((5-Chloro-4-fluoro-1H-indazol-1-yl)methyl)-2-fluorobenzoic acid]
0.2 to 0.5	–	–	–	O=C(O)c1cccc(Cn2ncc3cc(C(F)(F)F)cc(Br)c32)c1F [Compound 22, 3-((7-Bromo-5-(trifluoromethyl)-1H-indazol-1-yl)methyl)-2-fluorobenzoic acid]
≤ 0.2	–	–	–	O=C(O)c1cccc(Cn2ncc3cc(Cl)cc(Cl)c32)c1F [Compound 30, 3-((5,7-Dichloro-1H-indazol-1-yl)methyl)-2-fluorobenzoic acid]
≤ 0.2	1580	132	9.81	O=C(O)c1cccc(Cn2ncc3cc(Cl)c(Cl)c(Cl)c32)c1F [Compound 28, 2-Fluoro-3-((5,6,7-trichloro-1H-indazol-1-yl)methyl)benzoic acid]
≤ 0.2	–	–	–	Cc1cc(OC(F)(F)F)cc2ccn(Cc3cccc(C(=O)O)c3F)c12 [Compound 87, 2-Fluoro-3-((7-methyl-5-(trifluoromethoxy)-1H-indol-1-yl)methyl)benzoic acid]
≤ 0.2	–	–	–	O=C(O)c1cccc(Cn2ncc3cc(OC(F)(F)F)cc(Br)c32)c1F [Compound 27, 3-((7-Bromo-5-(trifluoromethoxy)-1H-indazol-1-yl)methyl)-2-fluorobenzoic acid]
≤ 0.2	–	–	–	O=C(O)c1cccc(Cn2ccc3c(F)c(Cl)ccc32)c1F [Compound 66, 3-((5-Chloro-4-fluoro-1H-indol-1-yl)methyl)-2-fluorobenzoic acid]
≤ 0.2	–	–	–	O=C(O)c1cccc(Cn2ccc3cc(Cl)c(Cl)cc32)c1F [Compound 6, 3-((5,6-Dichloro-1H-indol-1-yl)methyl)-2-fluorobenzoic acid]
≤ 0.2	–	–	–	O=C(O)c1cccc(Cn2ncc3cc(Cl)c(F)c(Cl)c32)c1F [Compound 51, 3-((5,7-Dichloro-6-fluoro-1H-indazol-1-yl)methyl)-2-fluorobenzoic acid]
≤ 0.2	–	–	–	CC(c1cccc(C(=O)O)c1F)n1ncc2cc(Cl)c(Cl)c(Cl)c21 (stereo not drawn) [Compound 39, 2-Fluoro-3-(1-(5,6,7-trichloro-1H-indazol-1-yl)ethyl)benzoic acid]
0.5 to 1	–	–	–	O=C(O)c1cccc(Cn2ccc3c(Cl)ccc(Cl)c32)c1F [Compound 80, 3-((4,7-Dichloro-1H-indol-1-yl)methyl)-2-fluorobenzoic acid]
≤ 0.2	–	–	–	O=C(O)c1cccc(Cn2ccc3c(Cl)cc(Cl)cc32)c1F [Compound 79, 3-((4,6-Dichloro-1H-indol-1-yl)methyl)-2-fluorobenzoic acid]
≤ 0.2	–	–	–	O=C(O)c1cccc(Cn2ncc3cc(Cl)cc(Br)c32)c1F [Compound 36, 3-((7-Bromo-5-chloro-1H-indazol-1-yl)methyl)-2-fluorobenzoic acid]
0.5 to 1	–	–	–	O=C(O)c1cc(Cn2ncc3cc(C(F)(F)F)cc(Br)c32)ccc1F [Compound 41, 5-((7-Bromo-5-(trifluoromethyl)-1H-indazol-1-yl)methyl)-2-fluorobenzoic acid]
0.2 to 0.5	–	–	–	O=C(O)c1cccc(Cn2ccc3cc(Cl)cc(Cl)c32)c1Cl [Compound 82, 2-Chloro-3-((5,7-dichloro-1H-indol-1-yl)methyl)benzoic acid]
≤ 0.2	–	–	–	O=C(O)c1cccc(Cn2ccc3c(Cl)c(Cl)ccc32)c1F [Compound 81, 3-((4,5-Dichloro-1H-indol-1-yl)methyl)-2-fluorobenzoic acid]
≤ 0.2	725	121	3.49	O=C(O)c1cccc(Cn2ccc3cc(Cl)cc(Cl)c32)c1F [Compound 5, 3-((5,7-Dichloro-1H-indol-1-yl)methyl)-2-fluorobenzoic acid]
≤ 0.2	612	93	3.39	Cc1cc(C(F)(F)F)cc2ccn(Cc3cccc(C(=O)O)c3F)c12 [Compound 16, 3-((7-Methyl-5-(trifluoromethyl)-1H-indol-1-yl)methyl)-2-fluorobenzoic acid]

Structure (SMILES)	IC50 [1] [µM]	AUC [2] [µg·h/mL]	Cmax [2] [µg/mL]	half-life [2] [h]
N#Cc1ccc2c(ccn2Cc2cccc(C(=O)O)c2F)c1Cl [Compound 74, 3-((4-Chloro-5-cyano-1H-indol-1-yl)methyl)-2-fluorobenzoic acid]	≤ 0.2	–	–	–

Reference: US20260274800A1, “Heterocyclic Compound And Use Thereof In Medicine” (Kangbaida (Sichuan) Biotechnology Co., Ltd., priority 2023, published 2026)
